Test results from patent EP2998000A1, “COMBINATION THERAPY FOR CANCER” (priority 2014, dated 2016).

How the values were obtained:
tumour cells [1] = settings: for Cytotoxicity E. coli: change of drug cytotoxicity on tumour cells after co-incubation with E. coli, bacteria removed by filtration, MTS, Up/Down/NC
tumour cells [2] = test: in vitro cytotoxicity screen of drugs co-incubated with L. welshimeri (tumour cell survival assay, MTS); settings: change of drug cytotoxicity on tumour cells after co-incubation with L. welshimeri, bacteria removed by filtration, Up/Down/NC
[3] = tested on: Subcutaneous flank CT26 tumours; test: murine model of intratumoural bacterial effects on chemotherapy
4T1 Luc cells = test: tumour cell survival assay, drug co-incubated with E. coli, supernatant applied to 4T1 Luc cells; type: cell-based, mouse; settings: gemcitabine 10 µM co-incubated with E. coli at different cfu/ml, Figure 1b

SMILES | Cytotoxicity E. coli (tumour cells [1]) | further results
Nc1nc(=O)[nH]cc1F [5-fluorocytosine] | Up | –
OC[C@H]1O[C@@H](n2cnc3c(S)ncnc32)C[C@@H]1O [6-Mercaptopurine-2’-deoxyriboside] | Up | –
CC1(C)CCC2=C(O1)c1ccccc1C(=O)C2=O [B-Lapachone] | Down | –
NC(=O)c1cc(N2CC2)c([N+](=O)[O-])cc1[N+](=O)[O-] [CB1954] | Up | Cytotoxicity L. welshimeri (tumour cells [2]): Up; median survival post Day 0 ([3]; CB1954 + bacteria group: E. coli i.t., CB1954 20 mg/kg i.p.): 26 days; median survival post Day 0 ([3]; CB1954 alone group: PBS i.t., CB1954 20 mg/kg i.p.): 8 days
Nc1nc(Cl)nc2c1ncn2[C@H]1C[C@H](O)[C@@H](CO)O1 [Cladribine] | Down | Cytotoxicity L. welshimeri (tumour cells [2]): Down
COc1cccc2c1C(=O)c1c(O)c3c(c(O)c1C2=O)C[C@@](O)(C(C)=O)C[C@@H]3O[C@H]1C[C@H](N)[C@H](O)[C@H](C)O1 [Daunorubicin] | Down | Cytotoxicity L. welshimeri (tumour cells [2]): Down
COc1cccc2c1C(=O)c1c(O)c3c(c(O)c1C2=O)C[C@@](O)(C(=O)CO)C[C@@H]3O[C@H]1C[C@H](N)[C@H](O)[C@H](C)O1 [Doxorubicin] | Down | –
COc1cc([C@@H]2c3cc4c(cc3[C@@H](O[C@@H]3O[C@@H]5CO[C@@H](C)O[C@H]5[C@H](O)[C@H]3O)[C@H]3COC(=O)[C@H]23)OCO4)cc(OC)c1OP(=O)(O)O [Etoposide phosphate] | decreasing and Down | –
Nc1nc(F)nc2c1ncn2[C@@H]1O[C@H](COP(=O)(O)O)[C@@H](O)[C@@H]1O [Fludarabine de phosphate] | Up | Cytotoxicity L. welshimeri (tumour cells [2]): Up
Nc1ccn([C@@H]2O[C@H](CO)[C@@H](O)C2(F)F)c(=O)n1 [Gemcitabine] | decreasing and Down | cytotoxicity after incubation with heat-inactivated lysate (or intact bacteria) (tumour cells [1]; gemcitabine 10 µM, E. coli heat-inactivated at 95 °C, Figure 2): no reduction in cytotoxicity; efficacy (tumour cell survival) (4T1 Luc cells): decreased; tumour volume ([3]; gemcitabine + bacteria group compared with gemcitabine alone group, various time points, gemcitabine 60 mg/kg i.p., E. coli i.t.): Significantly increased; median survival post Day 0 ([3]; gemcitabine + bacteria group: E. coli i.t., gemcitabine 60 mg/kg i.p.): 17 days; median survival post Day 0 ([3]; gemcitabine alone group: PBS i.t., gemcitabine 60 mg/kg i.p.): 28 days
CC(=O)[C@]1(O)Cc2c(O)c3c(c(O)c2[C@@H](O[C@H]2C[C@H](N)[C@H](O)[C@H](C)O2)C1)C(=O)c1ccccc1C3=O [Idarubicin] | Down | –
CC1=CC(=O)c2ccccc2C1=O [Menadione] | Down | –
O=C1c2c(O)ccc(O)c2C(=O)c2c(NCCNCCO)ccc(NCCNCCO)c21 [Mitoxantrone] | Down | –
O=c1[nH]c(=O)n(C2CCCO2)cc1F (centres unmarked) [Tegafur] | increasing and Up | –
Nc1ncnc2c1ncn2[C@@H]1O[C@H](CO)[C@@H](O)[C@@H]1O [Vidarabine] | decreasing and Down | –
